Here are results for three compounds from patent US8486863B2, “Activators of lateral root formation” (VIB VZW, priority 2006, dated 2013).

Each structure is given as a SMILES string.

The subject of one assay is auxin signaling mutants. Nature of the assay: Effect of activators on lateral root density of auxin signaling mutants (Table 2). Type of assay: in vivo, Arabidopsis thaliana. The text has this: Afb1, Afb2, Afb3 and the triple mutant Tirlafb2afb3 were described by Dhamasiri et al. (2005). Tir1 was described by Ruegger et al., (1998); 1aa28 by Rogg et al., (2001); Tir7-1 by Ruegger et al., (1997); the Cyp79b2b3 double mutant by Ljung et al. (2005); the arf7arf19 double mutant by Fukaki et al., (2005); Aux1 by Bennett et al., (1996); Xbat32 by Nodzon et al., (2004), Axr1-12 by Timpte et al., (1995), Slr1 by Fukaki et al., 2002 and Axr3-1 by Collet et al., (2000) and the mutants were obtained from the publishing authors.
For phenotypic analysis, all mutants were grown on vertically oriented square plates (Greiner Labortechnik, Austria) with solid medium derived from standard MS medium. The plates were put in a growth chamber under continuous light (110 μE.m2.s1 photosynthetically active radiation, supplied by cool-white fluorescent tungsten tubes; Osram) at 22° C. Three days after germination, the mutant plants were transferred to medium supplemented with compounds and were left to grow for another 7 days. After this, root length and number of lateral roots were counted using ImageJ 1.34 freeware.

Assay [1] concerns Wild-type Arabidopsis thaliana. Nature of the assay: Dose-response analysis of lateral root density and root length. Type of assay: in vivo. As to conditions: for potency as activator of LR development (LR density): dose-response, FIG. 3. On the procedure: FIG. 3: Dose-response analysis of class 1 (upper panel) and class 2 (lower panel) activators. Wild-type Arabidopsis thaliana seeds were germinated under standard conditions on agar plates. After 3 days of germination, seedlings were transferred to agar plates containing compound at different concentrations. Lateral root density was measured 10 days after germination. Bars represent standard errors.
FIG. 4: Dose-response analysis of A2, A11, A12, A14 and NAA. Wild-type Arabidopsis thaliana seeds were germinated under standard conditions on agar plates. After 3 days of germination, seedlings were transferred to agar plates containing compound at different concentrations and 1% DMSO. Plants transferred to agar plates containing 1% DMSO and no compound were used as controls. Lateral root density (left panels) and root length (right panels) were measured 10 days after germination. Bars represent standard errors.
For further phenotypic analysis, all plants were grown on vertically oriented square plates (Greiner Labortechnik, Austria) with solid medium derived from standard MS medium under the same conditions. 3 DAG plants were transferred to medium supplemented with compounds and were left to grow for another 7 days. After this, root length and number of LRs were counted using ImageJ 1.34 freeware.
As a subsequent step, the phenotypic effect of the 16 selected activators was determined in a dose-response analysis in which LR density (number of LRs per cm) was quantified (FIG. 3). Based upon potency and structure, two different classes of activators could be identified.

The test system of assay [2] is genes involved in auxin biosynthesis, auxin transport, auxin signaling and cell cycle. Nature of the assay: Q-PCR transcript profiling of roots after compound treatment. It is filed as in vivo, Arabidopsis thaliana. As to conditions: 30 μM; 6 hrs or 24 hrs treatment. The method, then:
FIG. 5: Transcript profiling of roots of wild-type Arabidopsis thaliana plants after 6 hrs or 24 hrs treatment with A2 (upper panel), A14 (middle panel) or A11 (lower panel) at a concentration of 30 μM.
RNA was extracted with the RNeasy kit. Poly(dT) cDNA was prepared from […] of total RNA with Superscript III reverse transcriptase (Invitrogen) and quantified on an LightCycler 480 apparatus (Roche) with the SYBR Green I Master kit (Roche) according to the manufacturers instructions. Target quantifications were performed with specific primer pairs designed with the Beacon Designer 4.0 (Premier Biosoft International). All PCRs were performed in triplicate. […] The primers used to quantify gene expression levels were: […]
Using Q-PCR, the expression of selected genes involved in auxin biosynthesis, auxin transport, auxin signaling and cell cycle was analyzed in response to compound treatment (FIG. 5).

For assay [3], the system named is auxin receptor mutant tir1. As to the kind of experiment: Effect of activators on the auxin receptor mutant tir1 compared with wild type. Type of assay: in vivo, Arabidopsis thaliana. As to conditions: tir1 mutant vs wild type, FIG. 13. The text has this:
FIG. 13: Effect of activators on the auxin receptor mutant TIR1 compared with wild type.

With `CCOC(=O)c1c(NC(=O)COc2ccc(Cl)cc2C)sc2c1CC(C)(C)OC2` [A2, ethyl 2-{[(4-chloro-2-methylphenoxy)acetyl]amino}-5,5-dimethyl-4,7-dihydro-5H-thieno[2,3-c]pyran-3-carboxylate], the lateral root density in the assay with auxin signaling mutants (Afb1-1, 30 uM) was 13.86 LR/cm; in the assay with auxin signaling mutants (Afb2-1, 30 uM), 10.07 LR/cm; in the assay with auxin signaling mutants (Afb3-1, 30 uM) it was 10.03 LR/cm; in the assay with auxin signaling mutants (Arf7Arf19, 30 uM), 0.00 LR/cm; in the assay with auxin signaling mutants (Arf16, 30 uM), 9.56 LR/cm; in the assay on auxin signaling mutants (Arf17, 30 uM), 8.67 LR/cm. The lateral root density with auxin signaling mutants (Axrt-12, 30 uM) was 13.97 LR/cm; in the assay with auxin signaling mutants (Cyp79, 30 uM) it was 13.69 LR/cm; with auxin signaling mutants (Iaa28-1, 30 uM), 4.32 LR/cm; in the assay on auxin signaling mutants (Tir1-1, 30 uM), 11.98 LR/cm; with auxin signaling mutants (Tir7-1, 30 uM), 28.57 LR/cm; in the assay on auxin signaling mutants (TirTM, 30 uM), 0.00 LR/cm. Moreover, in the assay with auxin signaling mutants (Xbat32, 30 uM), the lateral root density came to 9.67 LR/cm. For the same compound, the “potency as activator of LR development (LR density)” value in assay [1] is on record as “most potent activators of class 2”. The “stage of LR initiation at which the effect on gene expression is exerted” value in assay [2] is reported as “early stages of LR initiation (6 h)”.
Turning to `COc1cc(-c2nc3ccccn3c2N=Cc2cccc(Cl)c2Cl)ccc1O` [A10, 4-{3-[(2,3-dichlorobenzylidene)amino]imidazo[1,2-a]pyridin-2-yl}-2-methoxyphenol], the lateral root density in the assay with auxin signaling mutants (Afb1-1, 3 uM) is listed as 11.79 LR/cm; in the assay on auxin signaling mutants (Afb2-1, 3 uM), 15.90 LR/cm; in the assay with auxin signaling mutants (Afb3-1, 3 uM) it was 17.08 LR/cm; in the assay with auxin signaling mutants (Arf7Arf19, 3 uM), 0.00 LR/cm; in the assay on auxin signaling mutants (Arf16, 3 uM) it was 19.95 LR/cm; in the assay on auxin signaling mutants (Arf17, 3 uM), 10.80 LR/cm. The lateral root density amounted to 7.90 LR/cm with auxin signaling mutants (Axrt-12, 3 uM); 33.08 LR/cm with auxin signaling mutants (Cyp79, 3 uM); 0.00 LR/cm with auxin signaling mutants (Iaa28-1, 3 uM); 0.77 LR/cm with auxin signaling mutants (Tir1-1, 3 uM); 8.49 LR/cm with auxin signaling mutants (Tir7-1, 3 uM); 0.00 LR/cm in the assay with auxin signaling mutants (TirTM, 3 uM). Moreover, the lateral root density with auxin signaling mutants (Xbat32, 3 uM) is 8.37 LR/cm. Besides, the “TIR1 dependence of the working of the compound” value in assay [3] was “strictly TIR1 dependent”.
Take `CN1C(=O)C(=Cc2ccc(-c3cccc(C(F)(F)F)c3)o2)SC1=S` [A11, 3-methyl-2-thioxo-5-({5-[3-(trifluoromethyl)phenyl]-2-furyl}methylene)-1,3-thiazolidin-4-one]: the lateral root density is listed as 20.74 LR/cm with auxin signaling mutants (Afb1-1, 30 uM); 14.04 LR/cm in the assay with auxin signaling mutants (Afb2-1, 30 uM); 12.99 LR/cm in the assay with auxin signaling mutants (Afb3-1, 30 uM); 0.04 LR/cm in the assay on auxin signaling mutants (Arf7Arf19, 30 uM); 8.76 LR/cm in the assay on auxin signaling mutants (Arf16, 30 uM); 11.04 LR/cm in the assay on auxin signaling mutants (Arf17, 30 uM). Also, the lateral root density in the assay on auxin signaling mutants (Axrt-12, 30 uM) is 12.26 LR/cm; with auxin signaling mutants (Cyp79, 30 uM) it was 13.74 LR/cm; in the assay on auxin signaling mutants (Iaa28-1, 30 uM), 10.36 LR/cm; in the assay on auxin signaling mutants (Tir1-1, 30 uM), 8.95 LR/cm; with auxin signaling mutants (Tir7-1, 30 uM), 43.59 LR/cm; in the assay with auxin signaling mutants (TirTM, 30 uM), 0.00 LR/cm. Also, in the assay on auxin signaling mutants (Xbat32, 30 uM), the lateral root density worked out at 7.76 LR/cm. The “compound concentration that increased root density five times compared to controls” value in assay [1] (FIG. 4, 10 days after germination) came out at 20 µM. For the same compound, the Root length in assay [1] (at the concentration that increased root density five times (20 μM A11, 1.5 μM NAA)) was 0.7 times the root length of controls. For the same compound, the “potency as activator of LR development (LR density)” value in assay [1] was “most potent activators of class 2”. Further, the “stage of LR initiation at which the effect on gene expression is exerted” value in assay [2] is reported as “late stages of LR initiation (24 h)”.
